This is an account of results in US6921539B2, “Antimicrobial therapeutic compositions and method of use” (priority 2002, dated 2005).

Series [1] deals with acute bronchio pneumonia. In words: In Vivo Treatment of Pneumonia in Sheep, control group (Example 9). The note with it: 15 i.m. injections of 2 ml every 8 hours. The text has this: (§1) For example, a normalization of body temperature, the animal has begun to eat if not eating before treatment, the specific symptoms (e.g., diarrhea, coughing, etc.) have ceased.
(§2) Treatments of procarvol by injection were through methods and techniques normally used by those in the agricultural field.
(§3) The following examples are from a control group. These were similar animals and received standard conventional antibiotic treatment with accepted veterinary treatment protocols.
A 60 day old male sheep with an initial weight of 40 lbs (18 kg) was afflicted with acute bronchio pneumonia. Symptoms included fever and difficult breathing. The sheep had been positively diagnosed for […]. The sheep had been treated previously with penicillin. The therapy included 15 intramuscular injections of 2 ml Procaine penicillin G every 8 hours. The temperature of the sheep over the course of treatment is shown below.

In series [2] the test system is Escherichia coli. Nature of the series: In Vivo Treatment of Colibacilosis in Pig, control group (Example 8). The note with it: 2 i.m. injections of 2 ml every 12 hours.
Source text: as §1, §2, §3
A three (3) week old female Landras pig with an initial weight of 19 lbs (9 kg) was afflicted with Escherichia coli colibacilosis. Symptoms included diarrhea. The pig had been positively diagnosed for the bacterium Escherichia coli. The pig had been treated previously with ampicillin and colicisit. The therapy included two (2) intramuscular injections of 2 ml of ampicillin every 12 hours. The temperature of the pig over the course of treatment is shown below.

In series [3] the test system is Escherichia Coli. In words: In Vivo Treatment of Colibacilosis in Calf, control group (Example 12). Conditions: 5 i.m. injections of 5 ml and infusion of electrolytes every 12 hours.
Source text: as §1, §2, §3
A 15 day old male Holstein calf with an initial weight of 90 lbs (41 kg) was afflicted with Escerichia coli colibacilosis. Symptoms fever, diarrhea, dehydration, and loss of appetite. The calf had been positively diagnosed for Escherichia Coli. The calf had not been treated previously. The therapy included five (5) intramuscular injections of 5 ml ampicillin and also the infusion of electrolytes every 12 hours. The temperature of the calf over the course of treatment is shown below.

Series [4] relates to acute bronchio pneumonia. In words: In Vivo Treatment of Pneumonia in Pig, control group (Example 13). The note with it: 8 i.m. injections of 8 ml every 12 hours.
Source text: as §1, §2, §3
A three and one half (3½) month old male Landras pig with an initial weight of 80 lbs (36 kg) was afflicted with acute bronchio pneumonia. Symptoms included coughing, fever, and loss of appetite. The pig had been positively diagnosed for pneumonia. The pig had not been treated previously. The therapy included eight (8) intramuscular injections of 8 ml of ampicillin every 12 hours. The temperature of the pig over the course of treatment is shown below.

The next series has as its system Steptococcus uberis. In words: In Vivo Treatment of Mastitis in Cow, control group (Example 14). Conditions: 8 i.m. injections of 8 ml every 12 hours.
Source text: as §1, §2, §3
A four (4) year old […] Holstein cow with an initial weight of 1000 lbs (454 kg) was afflicted with mastitis. Symptoms included edema on the udder, and poor quality milk. The cow had been positively diagnosed for Steptococcus uberis. The cow had been previously treated with penicillin and streptomycin. The therapy included eight (8) intramuscular injections of 8 ml of ampicillin every 12 hours. The temperature of the cow over the course of treatment is shown below.

The conditions of series [5]: inactive metabolites after degradation by enzymes; cited from earlier work.
For series [6] the following is noted: cited from earlier work.

Each structure is given as a SMILES string.

Turning to `CC1(C)S[C@@H]2[C@H](NC(=O)Cc3ccccc3)C(=O)N2[C@H]1C(=O)O.CCN(CC)CCOC(=O)c1ccc(N)cc1` [Procaine penicillin G], the outcome of treatment with acute bronchio pneumonia [1] is “successful recovery”.
As for `CC1(C)S[C@@H]2[C@H](NC(=O)[C@H](N)c3ccccc3)C(=O)N2[C@H]1C(=O)O` [ampicillin], the outcome of treatment in the series on Escherichia coli [2] is recorded as “died as a result of the infection”; in the series on Escherichia Coli [3], “died as a result of the infection”; in the series on acute bronchio pneumonia [4], “successful recovery”; in the series with Steptococcus uberis, “successful recovery”.
As for `Cc1ccc(C(C)C)cc1O` [carvacrol, 5-isopropyl-2-methylphenol], in series [5], the “metabolites excreted in the urine” value was “approx. 90%” and the “metabolites expired from the lungs in the form of carbon dioxide (CO2)” value is on record as 10%. The solubility in lipids result in series [6] is “soluble in lipids”.
Consider `Cc1ccc(C(C)C)c(O)c1` [thymol, 5-methyl-2[1-methylethyl]phenol], for which, in series [5], the “metabolites excreted in the urine” value is on record as “approx. 90%” and the “metabolites expired from the lungs in the form of carbon dioxide (CO2)” value is 10%.
